Data reported in patent publication US10487088B2, “Tricyclic compound serving as immunomodulator” (Chia Tai Tianqing Pharmaceutical Group Co., Ltd., priority 2016, dated 2019).

Assays:
[1] = biological target: T1, recombinant human IDO1 enzyme (Homo sapiens, UniProt P14902); experiment: In vitro hIDO1 enzyme activity test (NFK Green fluorescence); assay type: biochemical; conditions: recombinant human IDO1, L-tryptophan substrate, pH 6.5
T1 construct: purchased NTRC NTRC-hlDO-10K
Procedure: The change of NFK production was detected by using the NFK Green™ fluorescent molecule, which is the metabolite of the IDO1 enzyme, and the IC50 value of the compound was used as an index, to evaluate the inhibitory effect of the compound on the recombinant human IDO1 enzyme.
IDO1 Enzyme Activity Assay Kit, NTRC # NTRC-hlDO-10K;
The compound was diluted to 1 mM in DMSO, and then diluted 3-fold in duplicate wells, with 10 gradients. 48 μL of 50 mM phosphate buffer (pH 6.5) was transferred to the compound plate via Bravo automated liquid handling platform. 2 μL of the diluted solution of the compound in DMSO was then added and mixed, followed by transferring 10 μL therein to an enzyme reaction plate.
The IDO1 enzyme was diluted to 20 nM in the reaction buffer (50 mM phosphate buffer pH 6.5, 0.1% Tween-20, 2% glycerol, 20 mM ascorbic acid, 20 μg/mL catalase and 20 μM methylene blue), and 20 μL of the solution was transferred to an enzyme reaction plate and incubated at 23° C. for 30 min. The reaction was started by adding 10 μL of 400 μM L-type tryptophan substrate and incubated at 23° C. for 90 min. 10 μL of NFK Green™ fluorescent dye was added, and the plate was sealed with the sealing film, incubated at 37° C. for 4 h, and then read on Envision Multimode Plate Reader (Ex 400 nm/Em 510 nm).
The control wells with the IDO1 enzyme but no compound was set as 0% inhibition, and the control wells without the IDO1 enzyme was set as 100% inhibition, and the IC50 value of the compound was calculated by analyzing the data with XLFit 5.

[2] = biological target: T2, IDO1 enzyme in Hela cells (Homo sapiens, UniProt P14902); experiment: hIDO1 cytological activity assay (kynurenine in Hela cells by LC-MS); assay type: cell-based; conditions: Hela cells induced with 100 ng/mL recombinant human γ-interferon, 20 h, read-out: IC50 hIDO1 Cytoactive
T2 construct: recombinant human γ-interferon was added at a final concentration of 100 ng/mL to induce IDO1 expression; endogenous in cells; host or cells: Hela cells, induced with recombinant human γ-interferon
T2 sequence (P14902 whole entry): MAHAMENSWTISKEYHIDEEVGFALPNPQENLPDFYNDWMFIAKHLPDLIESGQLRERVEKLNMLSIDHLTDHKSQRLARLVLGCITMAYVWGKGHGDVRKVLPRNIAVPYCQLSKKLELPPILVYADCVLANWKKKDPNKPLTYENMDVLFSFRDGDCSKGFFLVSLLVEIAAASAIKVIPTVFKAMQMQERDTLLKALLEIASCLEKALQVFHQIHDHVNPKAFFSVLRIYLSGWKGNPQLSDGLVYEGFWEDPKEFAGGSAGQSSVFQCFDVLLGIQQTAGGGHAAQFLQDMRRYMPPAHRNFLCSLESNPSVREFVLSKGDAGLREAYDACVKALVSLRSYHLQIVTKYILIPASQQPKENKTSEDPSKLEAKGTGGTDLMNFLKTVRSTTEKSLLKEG
Procedure: The change of kynurenine in Hela cells was detected by the LC-MS method, and the IC50 value of the compound was used as an index, to evaluate the inhibitory effect of the compound on IDO1 enzyme.
A medium, trypsin and DPBS were pre-heated in a 37° C. water bath. The medium for cell culture was sucked out and washed with 10 mL of DPBS; then the pre-heated trypsin was added into the culture flask, and the flask was rotated to allow the trypsin to uniformly cover it, and then placed in a 37° C., 5% CO2 incubator and digested for 1-2 min; in each T150, cells were dispersed with 10-15 mL of medium, centrifuged at 800 rpm for 5 min, and then resuspended in 10 mL of medium; 1 mL of cell suspension was pipetted and the cells were counted with Vi-cell; Hela cells were diluted with medium to 5×10^5/mL, 80 μL of the solution was added to a 96-cell plate, and cultured at 37° C. for 5-6 h in a 5% CO2 incubator.
The compound was diluted to 1 mM in DMSO, and then diluted 3-fold in duplicate wells, with 9 gradients. 5 μL of the diluted solution of the compound in DMSO was added to the compound plate containing 95 μL of the medium, and mixed, followed by transferring 10 μL of the mixture to a cell plate.
10 μL of recombinant human γ-interferon was added at a final concentration of 100 ng/mL to induce IDO1 expression. The cells were incubated at 37° C. for 20 h in a 5% CO2 incubator. 4 μL of 5% (w/v) trichloroacetic acid was added thereto, mixed and incubated at 50° C. for 30 min. After centrifugation at 2400 rpm for 10 min, 40 μL of the supernatant was taken and placed in a 96-well V-bottom plate, and then a precipitant was added in the plate. After mixing, the mixture was centrifuged at 4000 rpm for 10 min. 100 μL of the supernatant was transferred to a new 96-well V-bottom plate. The content of kynurenine was determined by LC-MS.
The control wells having γ-interferon but no compound was set as 0% inhibition, and the control wells without Hela cell was set as 100% inhibition, and the IC50 value of the compound was calculated by analyzing the data with XLFit 5.

T1 sequence (P14902 whole entry): as above

Row | IC50 [1] [nM] | IC50 [2] [nM] | Structure (SMILES)
1 | 55 | 17.5 | c1cc2c(s1)C(CCC1CCCCC1)n1cncc1-2 (single isomer, unassigned) [Example 9, 8-(2-cyclohexyl)-8H-thieno[3,4]pyrrolo[1,5-a]imidazole]
2 | > 10000 | > 5000 | c1cc2c(s1)C(CCC1CCCCC1)n1cncc1-2 (single isomer, unassigned) [Example 10, 8-(2-cyclohexyl)-8H-thieno[3,4]pyrrolo[1,5-a]imidazole]
3 | 65.9 | 220 | c1cc2c(s1)C(C1CCCCC1)n1cncc1-2 (single isomer, unassigned) [Example 14, 8-cyclohexyl-8H-thieno[3,4]pyrrolo[1,5-a]imidazole]
4 | 71 | 911 | c1cc2c(s1)C(CC1CCCCC1)n1cncc1-2 (single isomer, unassigned) [Example 16, 8-(cyclohexylmethyl)-8H-thieno[3,4]pyrrolo[1,5-a]imidazole]
5 | 23.1 | 212 | FC1(F)CCC(CCC2c3sccc3-c3cncn32)CC1 (single isomer, unassigned) [Example 22, 8-(2-(4,4-difluorocyclohexyl)ethyl)-8H-thieno[3′,2′:3,4]pyrrolo[1,2-c]imidazole]
6 | > 10000 | > 5000 | O[C@@H](C[C@@H]1c2sccc2-c2cncn21)C1CCOCC1 (single isomer, unassigned) [Example 28]
7 | 51.6 | 117 | O[C@@H](C[C@H]1c2sccc2-c2cncn21)C1CCOCC1 (single isomer, unassigned) [Example 29]
8 | 48 | 74.9 | FC1(F)CCC([C@H]2c3sccc3-c3cncn32)CC1 (single isomer, unassigned) [Example 41]
9 | 253 | 779 | OCC1(C2c3sccc3-c3cncn32)CCCCC1 (single isomer, unassigned) [Example 42, [1-(8H-thieno[3,4]pyrrolo[1,5-a]imidazol-8-yl)cyclohexyl]methanol]
10 | 161 | 377 | OC1CCCCC1C1c2sccc2-c2cncn21 (single isomer, unassigned) [Example 53, 2-(8H-thieno[3,4]pyrrolo[1,5-a]imidazol-8-yl)cyclohexanol]
11 | 199 | 446 | FC1(F)[C@@H]2C[C@@H](C3c4sccc4-c4cncn43)C[C@@H]21 (single isomer, unassigned) [Example 62, 8-[6,6-difluoro-3-bicyclo[3.1.0]cyclohexyl]-8H-thieno[3,4]pyrrolo[1,5-a]imidazole (trans)]
12 | 8800 | > 5000 | FC1(F)[C@@H]2C[C@@H](C3c4sccc4-c4cncn43)C[C@@H]21 (single isomer, unassigned) [Example 63, 8-[6,6-difluoro-3-bicyclo[3.1.0]cyclohexyl]-8H-thieno[3,4]pyrrolo[1,5-a]imidazole (trans)]
13 | 99.9 | 223 | c1cc2c(s1)C(C1CCCCCC1)n1cncc1-2 (single isomer, unassigned) [Example 72, 8-cycloheptyl-8H-thieno[3,4]pyrrolo[1,5-a]imidazole]
14 | > 10000 | > 5000 | c1cc2c(s1)C(C1CCCCCC1)n1cncc1-2 (single isomer, unassigned) [Example 73, 8-cycloheptyl-8H-thieno[3,4]pyrrolo[1,5-a]imidazole]
15 | 37 | 125 | FC1(F)C2CC(C3c4sccc4-c4cncn43)CC21 (single isomer, unassigned) [Example 77, 8-(6,6-difluoro-3-bicyclo[3.1.0]cyclohexyl)-8H-thieno[3,4]pyrrolo[1,5-a]imidazole (cis)]
16 | 27.2 | 159 | OC1CCCCC1C1c2sccc2-c2cncn21 (single isomer, unassigned) [Example 85]
17 | > 10000 |  | O[C@@H]1CCCC1[C@H]1c2sccc2-c2cncn21 (single isomer, unassigned) [Example 110, (trans)-2-(8H-thieno[3′,2′:3,4]pyrrolo[1,2-c]imidazol-8-yl)cyclopentanol]

Row | IC50 [1] [nM] | IC50 [2] [nM] | Structure (SMILES)
18 | 3510 |  | OC1CCC(C2c3sccc3-c3cncn32)CC1 (single isomer, unassigned) [Example 115, 4-(8H-thieno[3,4]pyrrolo[1,5-a]imidazol-8-yl)-cyclohexanol]
19 | > 10000 |  | OC1CCC(C2c3sccc3-c3cncn32)CC1 (single isomer, unassigned) [Example 116, 4-(8H-thieno[3,4]pyrrolo[1,5-a]imidazol-8-yl)-cyclohexanol]
20 | 7290 |  | OC1CCC(C2c3sccc3-c3cncn32)CC1 (single isomer, unassigned) [Example 118, 4-(8H-thieno[3,4]pyrrolo[1,5-a]imidazol-8-yl)-cyclohexanol]
21 | > 10000 |  | CC(C)(C(O)C1CCCCC1)C1c2sccc2-c2cncn21 (single isomer, unassigned) [Example 120, 1-cyclohexyl-2-methyl-2-(8H-thieno[3,4]pyrrolo[1,5-a]imidazol-8-yl)-propan-1-ol]
22 | 585 |  | CC(C)(C(O)C1CCCCC1)C1c2sccc2-c2cncn21 (single isomer, unassigned) [Example 121, 1-cyclohexyl-2-methyl-2-(8H-thieno[3,4]pyrrolo[1,5-a]imidazol-8-yl)-propan-1-ol]
23 | > 10000 |  | CC(C)(C(O)C1CCCCC1)C1c2sccc2-c2cncn21 (single isomer, unassigned) [Example 122, 1-cyclohexyl-2-methyl-2-(8H-thieno[3,4]pyrrolo[1,5-a]imidazol-8-yl)-propan-1-ol]
24 | 5980 |  | OCCC1c2sccc2-c2cncn21 (stereo not shown) [Example 11, 2-(8H-thieno[3′,2′:3,4]pyrrolo[1,2-c]imidazol-8-yl)ethanol]
25 | 106 |  | OC(CC1c2cscc2-c2cncn21)C1CCCCC1 (stereo not shown) [Example 12, 1-cyclohexyl-2-(5H-thieno[3′,4′:3,4]pyrrolo[1,2-c]imidazol-5-yl)ethanol]
26 | 5260 |  | CC(C)(C)C1c2sccc2-c2cncn21 (stereo not shown) [Example 23, 8-(tert-butyl)-8H-thieno[3′,2′:3,4]pyrrolo[1,2-c]imidazole]
27 | 1030 |  | CC(C)CC1c2sccc2-c2cncn21 (stereo not shown) [Example 24, 8-isobutyl-8H-thieno[3′,2′:3,4]pyrrolo[1,2-c]imidazole]
28 | 8120 |  | CC(C)C1c2sccc2-c2cncn21 (stereo not shown) [Example 25, 8-isopropyl-8H-thieno[3,4]pyrrolo[1,5-a]imidazole]
29 | > 10000 |  | c1cc2c(s1)C(CCN1CCOCC1)n1cncc1-2 (stereo not shown) [Example 30]
30 | > 10000 |  | c1cc2c(s1)C(CCN1CCCCC1)n1cncc1-2 (stereo not shown) [Example 31, 8-(2-(piperidin-1-yl)ethyl)-8H-thieno[3′,2′:3,4]pyrrolo[1,2-c]imidazole]
31 | 807 |  | c1cc2c(s1)C(C1CCC1)n1cncc1-2 (stereo not shown) [Example 32, 8-cyclobutyl-8-hydro-thieno[3,4]pyrrolo[1,5-a]imidazole]
32 | 1680 |  | O[C@@H](C[C@@H]1c2sccc2-c2cncn21)C1CCC(F)(F)CC1 [Example 47, (1S)-1-(4,4-difluorocyclohexyl)-2-((R)-8H-thieno[3,4]pyrrolo[1,5-a]imidazol-8-yl)ethanol]
33 | > 10000 |  | c1ccc2c(C3CCC(C4c5sccc5-c5nccn54)CC3)ccnc2c1 (stereo not shown) [Example 96, 5-(4-(quinolin-4-yl)cyclohexyl)-5H-thieno[3′,2′:3,4]pyrrolo[1,2-a]imidazole]
